Test results from BindingDB's records for doi:10.7270/Q22V2DH9 (Nmmlsc, 2007).

molecular target: T1, N-formyl peptide receptor 2 (Homo sapiens, UniProt P25090); experiment: FPRL1 fluorescent ligand binding inhibitors, dose response, selectivity assay for FPR1 ligand SAR project, cell-based, flow cytometry, Ki from IC50 (AID 723)
T1 sequence (P25090 whole entry): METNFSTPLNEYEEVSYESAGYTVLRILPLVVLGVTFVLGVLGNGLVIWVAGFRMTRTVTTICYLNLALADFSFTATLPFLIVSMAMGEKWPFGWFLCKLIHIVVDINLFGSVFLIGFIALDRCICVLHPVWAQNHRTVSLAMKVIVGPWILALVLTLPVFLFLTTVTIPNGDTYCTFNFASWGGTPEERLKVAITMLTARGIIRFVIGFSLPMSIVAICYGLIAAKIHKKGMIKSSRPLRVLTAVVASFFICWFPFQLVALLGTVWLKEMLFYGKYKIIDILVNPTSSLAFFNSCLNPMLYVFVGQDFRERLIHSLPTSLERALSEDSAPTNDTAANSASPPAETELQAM

SMILES | IC50
COCCN1C(=O)C(=O)C(C(=O)c2ccccc2)C1c1ccccc1OC (configuration not stated) [(4E)-1-(2-methoxyethyl)-5-(2-methoxyphenyl)-4-[oxidanyl(phenyl)methylidene]pyrrolidine-2,3-dione] | > 66.7 µM
Cc1sc2c(c1C)c(=O)n(Cc1ccccc1)c(=O)n2Cc1ccccc1F [1-[(2-fluorophenyl)methyl]-5,6-dimethyl-3-(phenylmethyl)thieno[2,3-d]pyrimidine-2,4-dione] | > 66.7 µM
COCCCN1C(=O)C(=O)C(C(=O)c2ccccc2)C1c1ccc(O)c(OC)c1 (configuration not stated) [(4E)-5-(3-methoxy-4-oxidanyl-phenyl)-1-(3-methoxypropyl)-4-[oxidanyl(phenyl)methylidene]pyrrolidine-2,3-dione] | > 66.7 µM
O=C1C(=O)N(CCc2ccccc2)C(c2ccc(Cl)cc2)C1C(=O)c1cccs1 (configuration not stated) [2-(4-chlorophenyl)-4-hydroxy-1-(2-phenylethyl)-3-(thiophene-2-carbonyl)-2H-pyrrol-5-one] | > 66.7 µM
COc1ccc(C2C(C(=O)c3ccc(C)cc3)C(=O)C(=O)N2Cc2cccnc2)c(OC)c1 (configuration not stated) [(4E)-5-(2,4-dimethoxyphenyl)-4-[(4-methylphenyl)-oxidanyl-methylidene]-1-(pyridin-3-ylmethyl)pyrrolidine-2,3-dione] | > 66.7 µM
COc1ccc(C(=O)C2C(=O)C(=O)NC2c2ccc(OC)cc2OC)cc1 (configuration not stated) [(4Z)-5-(2,4-dimethoxyphenyl)-4-[(4-methoxyphenyl)-oxidanyl-methylidene]pyrrolidine-2,3-dione] | > 66.7 µM
CC(C)C(=O)N(Cc1ccco1)S(=O)(=O)c1cccc2cccnc12 [N-(2-furanylmethyl)-2-methyl-N-(8-quinolinylsulfonyl)propanamide] | > 66.7 µM
CCCC(=O)N(Cc1ccco1)S(=O)(=O)c1cccc2cccnc12 [N-(2-furanylmethyl)-N-(8-quinolinylsulfonyl)butanamide] | > 66.7 µM
Cc1cccc(C2CC(=O)NC3=C2C(=O)CC(c2cccs2)C3)c1 (configuration not stated) [4-(3-methylphenyl)-7-thiophen-2-yl-1,3,4,6,7,8-hexahydroquinoline-2,5-dione] | > 66.7 µM
CCCCCCN1C(=O)C(=O)C(C(=O)c2ccccc2)C1c1ccc(O)c(OC)c1 (configuration not stated) [(4Z)-1-hexyl-5-(3-methoxy-4-oxidanyl-phenyl)-4-[oxidanyl(phenyl)methylidene]pyrrolidine-2,3-dione] | > 66.7 µM
COc1ccc(C2C(C(=O)c3cccs3)C(=O)C(=O)N2CCN2CCOCC2)c(OC)c1 (configuration not stated) [2-(2,4-dimethoxyphenyl)-1-(2-morpholin-4-ylethyl)-4-oxidanyl-3-thiophen-2-ylcarbonyl-2H-pyrrol-5-one] | > 66.7 µM
COc1ccc(C2C(C(=O)c3ccco3)C(=O)C(=O)N2CCN2CCOCC2)c(OC)c1 (configuration not stated) [5-(2,4-dimethoxyphenyl)-4-(furan-2-carbonyl)-3-hydroxy-1-(2-morpholinoethyl)-1H-pyrrol-2(5H)-one] | > 66.7 µM
CCCCCCOc1cccc(N2C(=O)C(=O)C(C(=O)c3ccccc3)C2c2cccc(F)c2)c1 (configuration not stated) [(4Z)-5-(3-fluorophenyl)-1-(3-hexoxyphenyl)-4-[hydroxy(phenyl)methylene]pyrrolidine-2,3-quinone] | > 66.7 µM
COc1ccc(-c2c(C)[nH]n3c(=O)c4c(nc23)CCCC4)cc1 | > 66.7 µM
O=C(O)C1CCCCC1C(=O)Nc1ccc(Br)cc1 (configuration not stated) [2-[(4-bromoanilino)-oxomethyl]-1-cyclohexanecarboxylic acid] | > 66.7 µM
COc1ccc(-c2c(C(F)(F)F)oc3cc(OC(=O)c4cccnc4)ccc3c2=O)cc1OC [3-pyridinecarboxylic acid [3-(3,4-dimethoxyphenyl)-4-oxo-2-(trifluoromethyl)-1-benzopyran-7-yl] ester] | > 66.7 µM
COCCN1C(=O)C(=O)C(C(=O)c2ccccc2)C1c1cc(OC)ccc1OC (configuration not stated) [(4E)-5-(2,5-dimethoxyphenyl)-1-(2-methoxyethyl)-4-[oxidanyl(phenyl)methylidene]pyrrolidine-2,3-dione] | > 66.7 µM
CCc1cc2c(=O)c(-c3nc4ccccc4n3C)c(C)oc2cc1OC(C)=O [acetic acid [6-ethyl-2-methyl-3-(1-methyl-2-benzimidazolyl)-4-oxo-1-benzopyran-7-yl] ester] | > 66.7 µM

Next, values leading:

IC50 | SMILES
> 66.7 µM | COc1ccc(-c2c(C(F)(F)F)oc3c(CN4CCOCC4)c(O)ccc3c2=O)cc1OC [3-(3,4-dimethoxyphenyl)-7-hydroxy-8-(4-morpholinylmethyl)-2-(trifluoromethyl)-1-benzopyran-4-one]
> 66.7 µM | O=C(Oc1ccc2c(=O)c(-c3ccccc3Cl)c(C(F)(F)F)oc2c1)c1cccs1
> 66.7 µM | O=C1CC(c2ccccc2C(F)(F)F)C2=C(CC(c3cccs3)CC2=O)N1 (configuration not stated) [7-(2-thienyl)-4-[2-(trifluoromethyl)phenyl]-1,3,4,6,7,8-hexahydroquinoline-2,5-quinone]
> 66.7 µM | COc1ccccc1-c1c(C(F)(F)F)oc2cc(OC(=O)c3ccco3)ccc2c1=O
> 66.7 µM | Cc1ccc(N2C(=O)C(=O)C(C(=O)c3ccccc3)C2c2cccc(F)c2)cc1Br (configuration not stated) [(4Z)-1-(3-bromanyl-4-methyl-phenyl)-5-(3-fluorophenyl)-4-[oxidanyl(phenyl)methylidene]pyrrolidine-2,3-dione]
> 66.7 µM | CC(C)c1ccc(C2C(C(=O)c3ccccc3)C(=O)C(=O)N2Cc2cccnc2)cc1 (configuration not stated) [(4E)-4-[hydroxy(phenyl)methylene]-5-p-cumenyl-1-(3-pyridylmethyl)pyrrolidine-2,3-quinone]
> 66.7 µM | O=C1C(=O)N(c2ccc(F)cc2)C(c2ccc(Br)cc2)C1C(=O)c1ccccc1 (configuration not stated) [(4Z)-5-(4-bromophenyl)-1-(4-fluorophenyl)-4-[hydroxy(phenyl)methylene]pyrrolidine-2,3-quinone]
> 66.7 µM | COc1ccc(C2C(C(=O)c3ccccc3)C(=O)C(=O)N2c2cccc(Cl)c2)c(OC)c1 (configuration not stated) [(4E)-1-(3-chlorophenyl)-5-(2,4-dimethoxyphenyl)-4-[hydroxy(phenyl)methylene]pyrrolidine-2,3-quinone]
> 66.7 µM | COc1ccc(C2C(C(=O)c3ccco3)C(=O)C(=O)N2CCCN2CCOCC2)cc1OC (configuration not stated) [2-(3,4-dimethoxyphenyl)-3-(furan-2-carbonyl)-4-hydroxy-1-(3-morpholin-4-ylpropyl)-2H-pyrrol-5-one]
> 66.7 µM | N#Cc1c(N=C(CC(=O)c2ccccc2)C(=O)O)sc2c1CCC2 [(Z)-2-[(3-cyano-5,6-dihydro-4H-cyclopenta[b]thiophen-2-yl)amino]-4-keto-4-phenyl-but-2-enoic acid]
> 66.7 µM | Cc1cccc(C)c1NC(=O)C(NC(=O)Cc1cccs1)c1ccccc1 (configuration not stated) [N-(2,6-dimethylphenyl)-2-[(1-oxo-2-thiophen-2-ylethyl)amino]-2-phenylacetamide]
> 66.7 µM | CCC(C)(C(=O)NC1CCCCC1)N(Cc1cccs1)C(C)=O (configuration not stated) [2-[acetyl(2-thenyl)amino]-N-cyclohexyl-2-methyl-butyramide]
> 66.7 µM | COc1ccc(OC)c(C2C(C(=O)c3ccccc3)C(=O)C(=O)N2c2cccnc2)c1 (configuration not stated) [(4E)-5-(2,5-dimethoxyphenyl)-4-[hydroxy(phenyl)methylene]-1-(3-pyridyl)pyrrolidine-2,3-quinone]
> 66.7 µM | Cc1ccc(C(=O)C2C(=O)C(=O)N(c3nnc(C)s3)C2c2ccc(C(C)C)cc2)cc1 (configuration not stated) [(4E)-4-[(4-methylphenyl)-oxidanyl-methylidene]-1-(5-methyl-1,3,4-thiadiazol-2-yl)-5-(4-propan-2-ylphenyl)pyrrolidine-2,3-dione]
